Structures can show the parent of a compound that is named as a salt. Where two headings read alike, the source gives them in different places.
Target: T1, recombinant human BACE-1 (Homo sapiens, UniProt P56817)
T1 construct: purchased R & D Systems
Test: BACE-1 FRET peptide cleavage assay
Type: biochemical
Details: FRET peptide with Swedish variant, 20 mM sodium acetate, 0.1% Triton-X-100, pH 4.5, 2 h, 25° C., triplicate
Method: The ability of the HS oligosaccharides to inhibit BACE-1 cleavage of APP was assessed using a fluorescent resonance energy transfer (FRET) peptide cleavage assay employing the Swedish amino acid variant FRET peptide 5-FAM-Glu-Val-Asn-Leu-Asp-Ala-Phe-Lys(QXL520)-OH. When intact, the amino terminal fluorophore is quenched, but upon enzymatic cleavage, it is released from quencher and fluoresces at 520 nm.
BACE inhibition assays: The ability of the compounds to inhibit BACE-1 cleavage of APP was assessed using a fluorescent resonance energy transfer (FRET) peptide cleavage assay employing the FRET peptide HiLyteFluor™488-Glu-Val-Asn-Leu-Asp-Ala-Glu-Phe-Lys(QXL520)-OH (Anaspec Inc, San Jose, Calif.), containing the Swedish amino acid variant. Assays were performed in triplicate in 96-well black plates (Greiner Bio-One Ltd) in a total volume of 100 μl of 20 mM sodium acetate, 0.1% Triton-X-100, pH 4.5 using 114 pmoles FRET peptide/well and 0.1 μg of recombinant human BACE-1 (R & D Systems; specific activity >3.5 pmol/min/μg). Inhibitors were added at 0.01 to 50 μg/mL and mixed with enzyme prior to addition of substrate. Appropriate controls for enzyme activity and background fluorescence were employed and plates were incubated (2 h, 25° C.) with reaction stopped by addition of 100 μl 2.5 M sodium acetate. Fluorescence 480ex/520em was measured on a Polarstar plate reader (BMG LabTechnologies, U.K.) and data were analyzed by plotting log concentration of inhibitor against percent inhibition and using a logistic sigmoidal curve fitting function using OriginPro 8 software (OriginLab Corporation, MA).

[1] = read-out: IC50 (μg/ml), inhibitory activity for cleavage of FRET peptide by BACE-1 (converted)
[2] = read-out: IC50 (μmol), inhibitory activity for cleavage of FRET peptide by BACE-1

T1 sequence (P56817 46-501): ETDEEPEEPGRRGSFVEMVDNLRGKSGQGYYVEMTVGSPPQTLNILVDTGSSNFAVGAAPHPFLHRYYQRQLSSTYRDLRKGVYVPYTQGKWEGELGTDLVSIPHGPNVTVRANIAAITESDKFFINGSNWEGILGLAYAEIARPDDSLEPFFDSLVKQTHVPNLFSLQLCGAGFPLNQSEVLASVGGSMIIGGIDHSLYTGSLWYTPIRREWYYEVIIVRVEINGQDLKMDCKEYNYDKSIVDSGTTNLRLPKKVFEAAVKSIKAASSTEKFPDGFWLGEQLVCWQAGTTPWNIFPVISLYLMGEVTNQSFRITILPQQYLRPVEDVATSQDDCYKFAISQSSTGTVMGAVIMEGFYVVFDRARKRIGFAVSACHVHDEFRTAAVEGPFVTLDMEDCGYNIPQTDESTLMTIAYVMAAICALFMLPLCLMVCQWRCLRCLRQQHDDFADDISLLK

Compound	IC50 [1]	IC50 [2]
NCCCCCOC1OC(COS(=O)(=O)O)C(OC2OC(C(=O)O)C(OC3OC(COS(=O)(=O)O)C(OC4OC(C(=O)O)C(OC5OC(COS(=O)(=O)O)C(OC6OC(C(=O)O)C(O)C(O)C6O)C(O)C5NS(=O)(=O)O)C(O)C4O)C(O)C3NS(=O)(=O)O)C(O)C2O)C(O)C1NS(=O)(=O)O [Compound 69, 5-aminopentyl [(β-D-glucopyranosyluronate)-(1→4)-(2-deoxy-2-sulfoamino-6-O-sulfonato-α-D-glucopyranoside)-(1→4)-O-(α-L-idopyranosyluronate)-(1→4)-O-(2-deoxy-2-sulfoamino-6-O-sulfanate-α-D-glucopyranoside)-(1→4)-(β-D-glucopyranosyluronate)]-(1→4)-O-2-deoxy-N-sulfoamino-6-O-sulfonate-α-D-glucopyranoside nonasodium salt]	40.1 µM	36 µM
CC(=O)NC1C(OC2C(C(=O)O)OC(OC3C(COS(=O)(=O)O)OC(OCCCCCN)C(NC(C)=O)C3O)C(O)C2O)OC(COS(=O)(=O)O)C(OC2OC(C(=O)O)C(O)C(O)C2O)C1O [Compound 76, 5-aminopentyl [(β-D-glucopyranosyluronate)-(1→4)-(2-acetamido-2-deoxy-6-O-sulfanate-α-D-glucopyranoside)-(1→4)-O-(β-D-glucopyranosyluronate-(1→4)-O-2-acetamido-2-deoxy-6-O-sulfanate-α-D-glucopyranosidetetrasodium salt]	38.2 µM	35 µM
CC(=O)NC1C(OC2C(C(=O)O)OC(OC3C(COS(=O)(=O)O)OC(OCCCCCN)C(NC(C)=O)C3O)C(O)C2O)OC(COS(=O)(=O)O)C(OC2OC(C(=O)O)C(O)C(O)C2O)C1O [Compound 78, 5-Aminopentyl[β-D-glucopyranosyluronate-(1→4)-(2-acetamido-2-deoxy-6-O-sulfonate-α-D-glucopyranoside)-(1→4)-α-L-idopyranosyluronate)]-(1→4)-2-acetamido-2-deoxy-6-O-sulfonate-α-D-glucopyranoside tetrasodium salt]	> 294 µM	–
CC(=O)NC1C(OC2C(C(=O)O)OC(OC3C(COS(=O)(=O)O)OC(OCCCCCN)C(NC(C)=O)C3O)C(O)C2O)OC(COS(=O)(=O)O)C(OC2OC(C(=O)O)C(O)C(O)C2O)C1O [Compound 80, 5-aminopentyl [(α-L-idopyranosyluronate)-(1→4)-O-(2-acetamido-2-deoxy-6-O-sulfonate-α-D-glucopyranoside)-(1→4)-O-(β-D-glucopyranosyluronate)]-(1→4)-(2-acetamido-2-deoxy-6-O-sulfonate-α-D-glucopyranosidetetrasodium salt]	102 µM	94 µM
CC(=O)NC1C(OC2C(C(=O)O)OC(OC3C(COS(=O)(=O)O)OC(OCCCCCN)C(NC(C)=O)C3O)C(O)C2O)OC(COS(=O)(=O)O)C(OC2OC(C(=O)O)C(O)C(O)C2O)C1O [Compound 82, 5-aminopentyl [(α-L-idopyranosyluronate)-(1→4)-(2-acetamido-2-deoxy-6-O-sulfonate-α-D-glucopyranoside)-(1→4)-O-(α-L-idopyranosyluronate-(1→4)-O-2-acetamido-2-deoxy-6-O-sulfonate-α-D-glucopyranosidetetrasodium salt]	34.2 µM	32 µM
CC(=O)NC1C(OC2C(C(=O)O)OC(OC3C(COS(=O)(=O)O)OC(OCCCCCN)C(NC(C)=O)C3O)C(OS(=O)(=O)O)C2O)OC(COS(=O)(=O)O)C(OC2OC(C(=O)O)C(O)C(O)C2O)C1O [Compound 84, 5-Aminopentyl [(α-L-idopyranosyluronate)-(1→4)-O-(2-acetamido-2-deoxy-6-O-sulfonate-α-D-glucopyranoside)-(1→4)-O-(2-O-sulfonato-α-L-idopyranosyl-uronate)]-(1→4)-2-deoxy-2-acetamido-6-O-sulfonate-α-D-glucopyranoside penta sodium salt]	> 272 µM	–
CC(=O)NC1C(OC2C(C(=O)O)OC(OC3C(COS(=O)(=O)O)OC(OCCCCCN)C(NC(C)=O)C3O)C(OS(=O)(=O)O)C2O)OC(COS(=O)(=O)O)C(OC2OC(C(=O)O)C(O)C(O)C2O)C1O [Compound 85, 5-Aminopentyl [((3-D-glucopyranosyluronate)-(1→4)-O-(2-acetamido-2-deoxy-6-O-sulfonato-α-D-glucopyranoside)-(1→4)-O-(2-O-sulfonato-α-L-idopyranosyluronate)]-(1→4)-2-deoxy-2-acetamido-6-O-sulfonate-α-D-glucopyranosidepentasodium salt]	152 µM	138 µM
NCCCCCOC1OC(COS(=O)(=O)O)C(OC2OC(C(=O)O)C(OC3OC(COS(=O)(=O)O)C(OC4OC(C(=O)O)C(O)C(O)C4O)C(O)C3NS(=O)(=O)O)C(O)C2OS(=O)(=O)O)C(O)C1NS(=O)(=O)O [Compound 86, 5-Aminopentyl [(β-D-glucopyranosyluronate)-(1→4)-O-(2-deoxy-2-sulfamino-6-O-sulfonate-α-D-glucopyranoside)-(1→4)-O-(2-O-sulfonate-α-L-idopyranosyluronate)-(1→4)-2-deoxy-2-sulfoamino-6-O-sulfonate-α-D-glucopyranosideheptasodium salt]	> 255 µM	–
